Measurements published in US20230374038A1, “MODULATORS OF CYSTIC FIBROSIS TRANSMEMBRANE CONDUCTANCE REGULATOR” (VERTEX PHARMACEUTICALS INCORPORATED, priority 2020, published 2023).
pEC50: −log10 of the molar value.

What follows are compounds tested against T1, CFTR (Homo sapiens, UniProt P13569, DEL508-508) (assay: HBE Assay: Ussing chamber assay of CFTR-mediated short-circuit currents in F508del/MF-HBE cells with 1 μM Ivacaftor). Conditions: range of concentrations with 1 μM Ivacaftor, 18-24 hours, 20% human serum.
T1 construct: endogenous in cells; host or cells: primary human bronchial epithelial cells, F508del/MF genotype
T1 sequence (P13569 with tags, fused parts or gaps DEL508-508): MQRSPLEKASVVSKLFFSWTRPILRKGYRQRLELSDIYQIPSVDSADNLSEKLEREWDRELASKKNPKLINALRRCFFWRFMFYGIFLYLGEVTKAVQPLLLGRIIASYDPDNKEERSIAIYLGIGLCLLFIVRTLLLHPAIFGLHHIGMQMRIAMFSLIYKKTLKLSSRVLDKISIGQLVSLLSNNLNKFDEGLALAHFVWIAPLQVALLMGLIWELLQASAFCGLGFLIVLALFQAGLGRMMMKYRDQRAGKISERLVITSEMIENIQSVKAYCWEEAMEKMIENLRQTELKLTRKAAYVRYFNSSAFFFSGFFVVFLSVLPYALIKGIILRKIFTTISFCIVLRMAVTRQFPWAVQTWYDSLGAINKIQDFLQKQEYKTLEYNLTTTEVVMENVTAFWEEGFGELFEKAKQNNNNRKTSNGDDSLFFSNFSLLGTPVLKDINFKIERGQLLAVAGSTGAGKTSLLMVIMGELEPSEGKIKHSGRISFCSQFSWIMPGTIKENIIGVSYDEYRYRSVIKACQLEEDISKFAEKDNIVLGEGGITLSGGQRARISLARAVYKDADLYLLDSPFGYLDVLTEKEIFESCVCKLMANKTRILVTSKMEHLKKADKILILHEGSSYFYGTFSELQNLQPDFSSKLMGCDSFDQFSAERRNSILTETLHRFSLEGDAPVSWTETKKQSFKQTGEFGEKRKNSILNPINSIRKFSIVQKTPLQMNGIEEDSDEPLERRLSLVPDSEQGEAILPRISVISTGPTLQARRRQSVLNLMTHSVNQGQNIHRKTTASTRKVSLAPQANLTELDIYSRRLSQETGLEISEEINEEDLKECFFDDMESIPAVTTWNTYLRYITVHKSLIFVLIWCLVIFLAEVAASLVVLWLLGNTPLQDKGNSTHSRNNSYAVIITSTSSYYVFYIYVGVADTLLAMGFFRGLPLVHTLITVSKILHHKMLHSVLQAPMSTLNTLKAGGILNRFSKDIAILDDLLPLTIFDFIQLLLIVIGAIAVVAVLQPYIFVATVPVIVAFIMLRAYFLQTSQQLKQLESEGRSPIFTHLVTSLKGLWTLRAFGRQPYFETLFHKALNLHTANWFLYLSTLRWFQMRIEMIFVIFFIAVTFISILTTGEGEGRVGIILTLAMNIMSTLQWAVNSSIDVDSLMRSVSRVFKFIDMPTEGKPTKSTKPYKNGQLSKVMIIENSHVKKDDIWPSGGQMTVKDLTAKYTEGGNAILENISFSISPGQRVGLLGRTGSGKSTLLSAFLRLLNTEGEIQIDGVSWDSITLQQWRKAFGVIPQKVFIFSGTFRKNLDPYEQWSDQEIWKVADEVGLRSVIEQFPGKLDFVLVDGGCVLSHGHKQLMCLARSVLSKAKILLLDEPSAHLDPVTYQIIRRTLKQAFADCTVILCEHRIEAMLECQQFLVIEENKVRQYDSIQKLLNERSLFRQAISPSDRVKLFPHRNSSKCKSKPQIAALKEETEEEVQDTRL
Type: cell-based
Method: Ussing chamber experiments were performed using human bronchial epithelial (HBE) cells derived from CF subjects heterozygous for F508del and a minimal function CFTR mutation (F508del/MF-HBE) and cultured as previously described (Neuberger T, Burton B, Clark H, Van Goor F Methods Mol Biol 2011:741:39-54). After four days the apical media was removed, and the cells were grown at an air liquid interface for >14 days prior to use.
(§1) To isolate the CFTR-mediated short-circuit (ISC) current, F508del/MF-HBE grown on Costar® Snapwell™ cell culture inserts were mounted in an Ussing chamber and the transepithelial ISC was measured under voltage-clamp recording conditions (Vhold=0 mV) at 37° C. The basolateral solution contained (in mM) 145 NaCl, 0.83 K2HIPO4, 3.3 KH2PO4, 1.2 MgCl2, 1.2 CaCl2), 10 Glucose, 10 HEPES (pH adjusted to 7.4 with NaOH) and the apical solution contained (in mM) 145 NaGluconate, 1.2 MgCl2, 1.2 CaCl2), 10 glucose, 10 HEPES (pH adjusted to 7.4 with NaOH) and 30 μM amiloride to block the epithelial sodium channel. Forskolin (20 μM) was added to the apical surface to activate CFTR, followed by apical addition of a CFTR inhibitor cocktail consisting of BPO, GlyH-101, and CFTR inhibitor 172 (each at 20 μM final assay concentration) to specifically isolate CFTR currents. The CFTR-mediated ISC (μA/cm^2) for each condition was determined from the peak forskolin response to the steady-state current following inhibition.
The activity of the CFTR corrector compounds on the CFTR-mediated ISC was determined in Ussing chamber studies as described above. The F508del/MF-HBE cell cultures were either incubated with the corrector compounds at a range of concentrations in combination with 1 μM Ivacaftor or were incubated with the corrector compounds at a single fixed concentration of 10 μM in combination with 1 μM Ivacaftor for 18-24 hours at 37° C. and in the presence of 20% human serum. The concentration of corrector compounds with 1 μM Ivacaftor during the 18-24 hours incubations was kept constant throughout the Ussing chamber measurement of the CFTR-mediated ISC to ensure compounds were present throughout the entire experiment.
as §1, with “K2HPO4,” for “K2HIPO4,”

pEC50 | SMILES
> 6.00 | Cc1cccc(C)c1-c1nc2nc(c1F)OC[C@@H](CC(C)(C)C)N(Cc1ncc(N3CCC(C)(C)C3)cn1)C(=O)c1cccc(c1)S(=O)(=O)N2 [Compound 341]
5.52 to 6.00 | Cc1cccc(C)c1-c1nc2nc(c1F)OC[C@@H](CC1CC1)N(Cc1ncc(OC(C)C)cn1)C(=O)c1cccc(c1)S(=O)(=O)N2 [Compound 343]
> 6.00 | Cc1cccc(C)c1-c1nc2nc(c1F)OC[C@@H](CC(C)C)N(Cc1ncc(OC(C)C)cn1)C(=O)c1cccc(c1)S(=O)(=O)N2 [Compound 337]
> 6.00 | Cc1cccc(C)c1-c1nc2nc(c1F)OC[C@@H](CC(C)(C)C)N(Cc1ncc(OC(C)C)cn1)C(=O)c1cccc(c1)S(=O)(=O)N2 [Compound 335]

Same assay, conditions: single fixed concentration of 10 μM, with 1 μM Ivacaftor, 20% human serum

HBE Activity at 10 μM | SMILES
++ (++ is 30-60%) | Cc1cccc(CC2CCOCC2)c1-c1nc2nc(c1C)OC[C@@H](CC(C)(C)C)N(Cc1ncc(N3CCC(C)(C)C3)cn1)C(=O)c1cccc(c1)S(=O)(=O)N2 (atropisomer, axis not shown) [Compound 272]
+++ (+++ is >600%) | COCCN(C)c1cnc(CN2C(=O)c3cccc(c3)S(=O)(=O)Nc3nc(c(C)c(-c4c(C)cccc4CC(C)C)n3)OC[C@H]2CC(C)(C)C)nc1 (atropisomer, axis not shown) [Compound 293]
++ (++ is 30-60%) | Cc1cccc(CC2CCCCC2)c1-c1nc2nc(c1C(F)(F)F)OC[C@@H](CC(C)(C)C)N(Cc1ccc(N3CCOCC3)cn1)C(=O)c1cccc(c1)S(=O)(=O)N2 (atropisomer, axis not shown) [Compound 249]
+++ (+++ is >600%) | Cc1cccc(CC(C)C)c1-c1nc2nc(c1C(F)(F)F)OC[C@@H](CC(C)(C)C)N(Cc1ncc(N3CCOCC3)cn1)C(=O)c1cccc(c1)S(=O)(=O)N2 (single isomer, unassigned) [Compound 213]
+++ (+++ is >600%) | Cc1cccc(C(C)C)c1-c1nc2nc(c1C)OC[C@@H](CC(C)(C)C)N(Cc1cnc(C3CCOCC3)cn1)C(=O)c1cccc(c1)S(=O)(=O)N2 (atropisomer, axis not shown) [Compound 319]
+++ (+++ is >600%) | Cc1cccc(CC2CCOCC2)c1-c1nc2nc(c1C)OC[C@@H](CC(C)(C)C)N(Cc1ncc(N3CCC(C)(C)C3)cn1)C(=O)c1cccc(c1)S(=O)(=O)N2 (atropisomer, axis not shown) [Compound 271]

Same assay, conditions: with 1 μM Ivacaftor, 18-24 hours, 20% human serum

SMILES | pEC50 | HBE Max Activity
Cc1cccc(CC2CCCC2)c1-c1nc2nc(c1C)OC[C@@H](CC(C)(C)C)N(Cc1ncc(N3CCOCC3)cn1)C(=O)c1cccc(c1)S(=O)(=O)N2 (atropisomer, axis not shown) [Compound 280] | > 6.00 | +++ (+++ is >600%)
Cc1cccc(C(C)C)c1-c1nc2nc(c1C)OC[C@@H](CC(C)(C)C)N(Cc1ncc(N3CCOCC3)cn1)C(=O)c1cccc(c1)S(=O)(=O)N2 (single isomer, unassigned) [Compound 209] | > 6.00 | +++ (+++ is >600%)
Cc1cccc(CC(C)C)c1-c1nc2nc(c1C)OC[C@@H](CC(C)(C)C)N(Cc1ncc(CC(C)C)cn1)C(=O)c1cccc(c1)S(=O)(=O)N2 (atropisomer, axis not shown) [Compound 264] | > 6.00 | +++ (+++ is >600%)
Cc1cccc(CC2CCCCC2)c1-c1nc2nc(c1C)OC[C@@H](CC(C)(C)C)N(Cc1ncc(C3CCCCC3)cn1)C(=O)c1cccc(c1)S(=O)(=O)N2 (atropisomer, axis not shown) [Compound 276] | > 6.00 | +++ (+++ is >600%)
Cc1cccc(CC(C)C)c1-c1nc2nc(c1C(F)(F)F)OC[C@@H](CC(C)(C)C)N(Cc1ccc(N3CCOCC3)cn1)C(=O)c1cccc(c1)S(=O)(=O)N2 (atropisomer, axis not shown) [Compound 246] | > 6.00 | +++ (+++ is >600%)
Cc1cccc(CC2CCCC2)c1-c1nc2nc(c1C)OC[C@@H](CC(C)(C)C)N(Cc1ccc(N3CCOCC3)cn1)C(=O)c1cccc(c1)S(=O)(=O)N2 (atropisomer, axis not shown) [Compound 289] | > 6.00 | +++ (+++ is >600%)
Cc1cccc(CC2CCCCC2)c1-c1nc2nc(c1C)OC[C@@H](CC(C)(C)C)N(Cc1ncc(C3CCOCC3)cn1)C(=O)c1cccc(c1)S(=O)(=O)N2 [Compound 251] | > 6.00 | +++ (+++ is >600%)
Cc1c2nc(nc1-c1ccccc1C(C)(C)C)NS(=O)(=O)c1cccc(c1)C(=O)N(Cc1ccc(N3CCOCC3)cn1)[C@H](CC(C)(C)C)CO2 [Compound 181] | > 6.00 | +++ (+++ is >600%)
Cc1cccc(CC2CCCC2)c1-c1nc2nc(c1C)OC[C@@H](CC(C)(C)C)N(Cc1cccc(N(C)C(C)C)n1)C(=O)c1cccc(c1)S(=O)(=O)N2 (atropisomer, axis not shown) [Compound 273] | > 6.00 | +++ (+++ is >600%)
Cc1cccc(CC2CCCCC2)c1-c1nc2nc(c1C)OC[C@@H](CC(C)(C)C)N(Cc1cccc(N(C)CC(C)(C)C)n1)C(=O)c1cccc(c1)S(=O)(=O)N2 (atropisomer, axis not shown) [Compound 259] | > 6.00 | +++ (+++ is >600%)
Cc1cccc(CC2CCCCC2)c1-c1nc2nc(c1C)OC[C@@H](CC(C)(C)C)N(Cc1nccc(N(C)C)n1)C(=O)c1cccc(c1)S(=O)(=O)N2 (atropisomer, axis not shown) [Compound 261] | > 6.00 | +++ (+++ is >600%)
Cc1cccc(C)c1-c1nc2nc(c1C)OC[C@@H](C(C)C)N(Cc1cncc(N(C)CC(C)(C)C)n1)C(=O)c1cccc(c1)S(=O)(=O)N2 [Compound 195] | > 6.00 | +++ (+++ is >600%)
Cc1cccc(COC(C)C)c1-c1nc2nc(c1C)OC[C@@H](CC(C)(C)C)N(Cc1ncc(N3CCC(C)(C)C3)cn1)C(=O)c1cccc(c1)S(=O)(=O)N2 (single isomer, unassigned) [Compound 221] | > 6.00 | +++ (+++ is >600%)
Cc1cccc(CC2CCCC2)c1-c1nc2nc(c1C)OC[C@@H](CC(C)(C)C)N(Cc1ncc(CC(C)C)cn1)C(=O)c1cccc(c1)S(=O)(=O)N2 (atropisomer, axis not shown) [Compound 268] | > 6.00 | +++ (+++ is >600%)
COCCN(C)c1ccc(CN2C(=O)c3cccc(c3)S(=O)(=O)Nc3nc(c(C)c(-c4c(C)cccc4CC(C)C)n3)OC[C@H]2CC(C)(C)C)nc1 (atropisomer, axis not shown) [Compound 292] | > 6.00 | +++ (+++ is >600%)

Second part, the compound after the results:

pEC50 | HBE Max Activity | SMILES
> 6.00 | +++ (+++ is >600%) | Cc1cccc(CC(C)C)c1-c1nc2nc(c1C)OC[C@@H](CC(C)(C)C)N(Cc1ncc(N3CCOCC3)cn1)C(=O)c1cccc(c1)S(=O)(=O)N2 (atropisomer, axis not shown) [Compound 295]
> 6.00 | +++ (+++ is >600%) | Cc1cccc(CC2CCCCC2)c1-c1nc2nc(c1C)OC[C@@H](CC(C)(C)C)N(Cc1ncc(N3CCOCC3)cn1)C(=O)c1cccc(c1)S(=O)(=O)N2 (atropisomer, axis not shown) [Compound 306]
> 6.00 | +++ (+++ is >600%) | Cc1cccc(CC(C)C)c1-c1nc2nc(c1C)OC[C@@H](CC(C)(C)C)N(Cc1ccc(N3CCOCC3)cn1)C(=O)c1cccc(c1)S(=O)(=O)N2 (atropisomer, axis not shown) [Compound 297]
> 6.00 | +++ (+++ is >600%) | Cc1cccc(CC2CCCCC2)c1-c1nc2nc(c1C)OC[C@@H](CC(C)(C)C)N(Cc1ccc(N3CCCCC3)cn1)C(=O)c1cccc(c1)S(=O)(=O)N2 (atropisomer, axis not shown) [Compound 307]

Same assay, conditions: with 1 μM Ivacaftor, 18-24 hours, 20% human serum, compared to known Vertex corrector with 18 μM Tezacaftor and 1 μM Ivacaftor, read-out: HBE Max activity (%)

Emax | SMILES
> 60% | Cc1cccc(C)c1-c1nc2nc(c1F)OC[C@@H](CC(C)(C)C)N(Cc1ncc(N3CCC(C)(C)C3)cn1)C(=O)c1cccc(c1)S(=O)(=O)N2 [Compound 341]
> 60% | Cc1cccc(C)c1-c1nc2nc(c1F)OC[C@@H](CC1CC1)N(Cc1ncc(OC(C)C)cn1)C(=O)c1cccc(c1)S(=O)(=O)N2 [Compound 343]
> 60% | Cc1cccc(C)c1-c1nc2nc(c1F)OC[C@@H](CC(C)C)N(Cc1ncc(OC(C)C)cn1)C(=O)c1cccc(c1)S(=O)(=O)N2 [Compound 337]
> 60% | Cc1cccc(C)c1-c1nc2nc(c1F)OC[C@@H](CC(C)(C)C)N(Cc1ncc(OC(C)C)cn1)C(=O)c1cccc(c1)S(=O)(=O)N2 [Compound 335]
